# Measurements reported in ChEMBL document CHEMBL1201862, “PubChem BioAssay data set” (2004).
# Active and inactive are the calls of the source.
# Experiments:
# [1] = biological target: T1, Mitochondrial peptide methionine sulfoxide reductase (Bos taurus, UniProt P54149); assay: Absorbance-based biochemical high throughput dose response assay for activators of Methionine sulfoxide reductase A (MsrA).; format: functional
# T1 sequence (P54149 whole entry): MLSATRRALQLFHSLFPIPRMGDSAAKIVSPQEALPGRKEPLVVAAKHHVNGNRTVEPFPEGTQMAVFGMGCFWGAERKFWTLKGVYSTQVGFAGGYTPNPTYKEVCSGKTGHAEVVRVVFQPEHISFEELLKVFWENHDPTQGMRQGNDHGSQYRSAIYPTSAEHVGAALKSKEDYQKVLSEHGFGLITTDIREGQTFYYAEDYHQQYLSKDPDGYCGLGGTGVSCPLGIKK
# [2] = biological target: SWI/SNF-related matrix-associated actin-dependent regulator of chromatin subfamily A member 2 (Homo sapiens, UniProt P51531); assay: Luminescence-based cell-based high throughput dose response assay to identify activators of the function of SWI/SNF related, matrix associated, actin dependent regulator of chromatin, subfamily a, member 2 (SMARCA2, BRM).; format: functional
# SWI/SNF-related matrix-associated actin-dependent regulator of chromatin subfamily A member 2, sequence (P51531 whole entry): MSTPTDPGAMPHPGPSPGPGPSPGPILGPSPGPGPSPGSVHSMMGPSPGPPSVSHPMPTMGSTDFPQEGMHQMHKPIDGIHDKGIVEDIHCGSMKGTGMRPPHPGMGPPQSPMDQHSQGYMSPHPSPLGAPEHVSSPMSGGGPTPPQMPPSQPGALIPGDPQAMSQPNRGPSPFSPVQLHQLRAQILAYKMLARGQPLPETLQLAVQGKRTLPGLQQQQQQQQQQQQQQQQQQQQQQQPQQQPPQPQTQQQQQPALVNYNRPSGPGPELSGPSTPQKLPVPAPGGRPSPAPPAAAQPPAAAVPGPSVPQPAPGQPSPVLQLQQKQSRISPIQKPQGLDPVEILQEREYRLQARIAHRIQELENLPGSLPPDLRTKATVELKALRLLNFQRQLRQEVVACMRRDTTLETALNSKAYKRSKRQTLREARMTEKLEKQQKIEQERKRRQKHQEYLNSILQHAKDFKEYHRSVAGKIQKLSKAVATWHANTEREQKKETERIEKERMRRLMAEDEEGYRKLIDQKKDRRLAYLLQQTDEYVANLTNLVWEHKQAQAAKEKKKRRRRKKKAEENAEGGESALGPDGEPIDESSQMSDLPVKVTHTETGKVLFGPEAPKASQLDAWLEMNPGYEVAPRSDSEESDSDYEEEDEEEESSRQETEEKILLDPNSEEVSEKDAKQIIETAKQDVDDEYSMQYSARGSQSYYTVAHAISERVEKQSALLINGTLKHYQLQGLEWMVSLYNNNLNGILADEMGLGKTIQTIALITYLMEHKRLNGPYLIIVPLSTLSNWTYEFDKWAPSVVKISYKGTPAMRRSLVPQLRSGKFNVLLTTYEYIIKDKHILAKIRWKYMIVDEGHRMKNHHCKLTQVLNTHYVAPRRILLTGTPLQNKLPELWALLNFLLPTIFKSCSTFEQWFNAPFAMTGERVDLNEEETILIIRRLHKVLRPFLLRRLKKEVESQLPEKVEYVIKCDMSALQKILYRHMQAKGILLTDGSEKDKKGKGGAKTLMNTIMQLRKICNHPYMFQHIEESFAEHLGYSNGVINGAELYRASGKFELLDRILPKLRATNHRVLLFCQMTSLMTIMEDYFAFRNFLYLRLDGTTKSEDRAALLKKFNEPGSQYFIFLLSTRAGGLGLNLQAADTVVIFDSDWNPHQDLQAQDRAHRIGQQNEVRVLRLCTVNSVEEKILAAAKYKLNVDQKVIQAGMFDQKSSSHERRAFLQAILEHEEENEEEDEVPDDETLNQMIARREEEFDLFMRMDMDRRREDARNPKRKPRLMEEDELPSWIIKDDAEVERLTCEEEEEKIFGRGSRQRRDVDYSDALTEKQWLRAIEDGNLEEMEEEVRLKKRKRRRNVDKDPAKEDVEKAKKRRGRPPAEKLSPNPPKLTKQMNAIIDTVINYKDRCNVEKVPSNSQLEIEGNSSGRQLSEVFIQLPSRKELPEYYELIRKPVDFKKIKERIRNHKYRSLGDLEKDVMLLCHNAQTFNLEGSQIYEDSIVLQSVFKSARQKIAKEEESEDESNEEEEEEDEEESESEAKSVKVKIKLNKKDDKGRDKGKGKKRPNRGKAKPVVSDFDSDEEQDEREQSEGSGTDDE
# [3] = Counterscreen for activators of the function of SWI/SNF related, matrix associated, actin dependent regulator of chromatin, subfamily a, member 2 (SMARCA2, BRM): Luminescence-based cell-based high throughput dose response assay to identify non-selective compounds using the VP16 reporter assay.; format: functional
# [4] = biological target: T2, DNA repair protein RAD52 homolog (Homo sapiens, UniProt P43351); format: functional, biochemical
# T2 sequence (P43351 whole entry): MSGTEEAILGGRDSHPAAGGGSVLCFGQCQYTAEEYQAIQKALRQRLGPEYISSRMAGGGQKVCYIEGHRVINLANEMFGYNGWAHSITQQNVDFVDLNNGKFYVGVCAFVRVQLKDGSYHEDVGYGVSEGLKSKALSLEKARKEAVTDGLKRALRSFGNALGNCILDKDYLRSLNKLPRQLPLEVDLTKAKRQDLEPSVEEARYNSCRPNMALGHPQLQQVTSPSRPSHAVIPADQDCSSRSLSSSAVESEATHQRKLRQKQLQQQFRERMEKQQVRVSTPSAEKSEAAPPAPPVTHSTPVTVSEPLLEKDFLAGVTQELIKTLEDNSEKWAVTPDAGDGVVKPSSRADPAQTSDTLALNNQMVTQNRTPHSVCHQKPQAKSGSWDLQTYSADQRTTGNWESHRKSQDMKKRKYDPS
# HEK293 [5] = assay: cells; conditions: Homo sapiens
# HEK293 [6] = assay: cells; conditions: Homo sapiens; remark: listed apart in the source
# [7] = HGIII-sPLA2 enzyme inhibition potency – biochemical, QFRET, IC50, dose response (AID 743457);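 note: green fluorescence rise as the enzyme cleaves BODIPY PC-A2 in liposomes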
# H9c2 = assay: cells; format: functional, cell-based; conditions: Rattus norvegicus, H9c2, Myocardium;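 note: confirmatory concentration-response retest of ultra-high-throughput screening hits for modulation of myocardial damage; cell death induced by hydrogen peroxide oxidative stress; compound pretreatment for 60 min then peroxide exposure for 2 h; potency is for protecting the cells against peroxide damage rather than for killing them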
# [8] = biological target: T3, ATP-dependent translocase ABCB1 (Homo sapiens, UniProt P08183); assay: inhibition of BCRP-mediated JC-1 efflux – Ig-MXP3 cells, flow cytometry, set 2, dose response (AID 504566); format: functional; conditions: read-out: EC50_MICROM_;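 note: flow cytometry median green fluorescence of retained JC-1 dye; potency of efflux pump inhibition measured as rising substrate retention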
# T3 sequence (P08183 whole entry): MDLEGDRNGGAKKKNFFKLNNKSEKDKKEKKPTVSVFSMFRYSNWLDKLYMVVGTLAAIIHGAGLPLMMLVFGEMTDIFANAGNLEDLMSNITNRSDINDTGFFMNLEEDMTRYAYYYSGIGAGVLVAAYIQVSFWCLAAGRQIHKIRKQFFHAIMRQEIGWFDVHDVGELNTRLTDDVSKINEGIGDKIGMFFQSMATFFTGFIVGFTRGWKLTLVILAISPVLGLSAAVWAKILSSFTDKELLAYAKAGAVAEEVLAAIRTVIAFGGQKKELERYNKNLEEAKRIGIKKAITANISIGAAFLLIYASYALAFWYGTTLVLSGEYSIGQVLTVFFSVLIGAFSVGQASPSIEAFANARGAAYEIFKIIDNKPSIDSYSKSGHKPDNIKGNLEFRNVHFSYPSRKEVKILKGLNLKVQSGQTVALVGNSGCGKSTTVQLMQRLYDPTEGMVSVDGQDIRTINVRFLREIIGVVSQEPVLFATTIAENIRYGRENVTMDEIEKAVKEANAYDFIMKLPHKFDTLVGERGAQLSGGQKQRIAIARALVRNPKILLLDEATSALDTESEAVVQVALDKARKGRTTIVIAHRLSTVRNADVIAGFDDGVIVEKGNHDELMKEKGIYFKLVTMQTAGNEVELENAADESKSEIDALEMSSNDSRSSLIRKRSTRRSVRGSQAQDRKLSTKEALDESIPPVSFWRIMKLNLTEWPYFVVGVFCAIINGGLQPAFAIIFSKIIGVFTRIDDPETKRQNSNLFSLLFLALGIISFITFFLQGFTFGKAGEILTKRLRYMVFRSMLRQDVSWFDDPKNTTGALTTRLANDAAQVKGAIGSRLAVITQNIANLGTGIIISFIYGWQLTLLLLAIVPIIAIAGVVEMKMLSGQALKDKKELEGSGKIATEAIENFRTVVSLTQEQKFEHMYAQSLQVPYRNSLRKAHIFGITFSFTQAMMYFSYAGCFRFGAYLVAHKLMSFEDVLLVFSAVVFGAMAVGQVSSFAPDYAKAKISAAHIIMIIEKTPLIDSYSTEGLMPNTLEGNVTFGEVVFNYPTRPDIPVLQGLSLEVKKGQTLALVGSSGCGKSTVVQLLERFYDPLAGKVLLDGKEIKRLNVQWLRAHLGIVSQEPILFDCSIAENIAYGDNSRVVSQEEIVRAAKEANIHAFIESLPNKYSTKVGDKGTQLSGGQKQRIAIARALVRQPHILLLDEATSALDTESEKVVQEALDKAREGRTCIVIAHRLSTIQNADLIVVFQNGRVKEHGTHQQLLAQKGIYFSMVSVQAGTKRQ
# [9] = biological target: T3, ATP-dependent translocase ABCB1; assay: P-gp JC-1 efflux blockade concentration-response – Jurkat-DNR cells, flow cytometry, set 2, dose response (AID 504569); format: functional; conditions: read-out: EC50_MICROM_;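 note: potency of pump inhibitors that raise cellular JC-1 green fluorescence up to the nicardipine level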
# [10] = activation of miR-122 Renilla sensor silencing – cell-based, Huh7 psiCHECK-miR122, Renilla luciferase, cherry-picked, dose response (AID 651956); format: functional;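 note: huh7 hepatoma cells stably carrying a psiCHECK-2 miR-122 sensor plasmid; renilla luciferase signal reporting endogenous miR-122 activity after 48 h compound exposure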
# [11] = general mammalian cell viability loss – activator set, cherry-pick, cytotoxicity control for miR-122 modulator project, dose response (AID 720690); format: functional, cell-based;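 note: HEK293T human cells scored for general mammalian cytotoxicity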
# [12] = mouse fibroblast viability loss – cell-based, cherry-pick samples, set 2, cytotoxicity control for T. cruzi growth inhibitor project, dose response (AID 651817); format: functional; conditions: NIH3T3
# [13] = TNFa-induced NF-kB reporter signal decrease – HEK293 LMP1 reporter cells, dry powder, set 2, selectivity assay for EBV LMP1 NF-kB inhibitor project, dose response (AID 624369); format: functional
# [14] = inhibitors of EBV LMP1 NF-kappaB signaling – cell-based, luciferase reporter, luminescence, dry powder, set 2, dose response (AID 624376); format: functional
# [15] = A549 cell cytotoxicity, dose response, cytotoxicity control, plate reader, cherry-pick, antagonist series (AID 743412); format: functional, cell-based
# [16] = inhibition of bursicon-driven LGR2 cAMP signaling – cell-based, HEK293, CRE-luciferase reporter, cherry pick, dose response (AID 743342); format: functional
# [17] = blockade of melanocortin 4 receptor signaling – cell-based, plate reader, cherry pick, counter-screen for LGR2 antagonist project, dose response (AID 743444); format: functional;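 note: transfected HEK 293 cells stimulated with alpha-MSH peptide; potency of inhibitors of the alpha-MSH evoked signal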
structure (smiles),measurement,setting,value
COc1ccc(OC)c2nc3c(C(=O)NCCN(C)C)cccc3nc12,EC50,[1],46.5 µM (inactive)
same,EC50,[2],10.2 µM (inactive)
same,EC50,[3],> 91.1 µM (inactive)
same,AC50,[4],0.59 µM (active)
same,EC50,HEK293 [5],> 6.63 µM (active)
same,EC50,HEK293 [6],> 59.7 µM (inactive)
Sc1nnc(COc2ccccc2)n1-c1ccc(Cl)cc1,IC50,[7],> 122 µM (inactive)
COc1ccccc1-c1cc2nc(-c3ccccc3)cc(N3CCN(C(=O)c4ccoc4)CC3)n2n1,IC50,H9c2,> 79 µM (inactive)
same,EC50,[8],0.34 µM (active)
same,EC50,[9],2.7 µM (active)
C[C@H]1CCCCO[C@H](CN(C)Cc2ccc3c(c2)OCO3)[C@@H](C)CN([C@@H](C)CO)C(=O)c2cc(NC(=O)Nc3cccc4ccccc34)ccc2O1,AC50,[10],10 µM (active)
same,AC50,[11],10 µM (active)
C[C@H]1CN([C@@H](C)CO)C(=O)c2cccc(NC(=O)Nc3ccc(C(F)(F)F)cc3)c2O[C@H]1CN(C)Cc1ccc(Cl)c(Cl)c1,AC50,[12],13.6 µM (active)
COc1ccc(S(=O)(=O)N(C)C[C@@H]2Oc3ncc(/C=C/c4ccccc4)cc3C(=O)N([C@@H](C)CO)C[C@H]2C)cc1,AbsAC35,[13],77.19 µM
same,AbsAC35,[14],47.67 µM
C[C@H](CO)N1C[C@H](C)[C@H](CN(C)C(=O)Nc2cccc3ccccc23)OCCCC[C@H](C)Oc2ccc(NC(=O)CCC(F)(F)F)cc2C1=O,AC50,[15],35 µM (active)
same,AC50,[16],4.02 µM (active)
same,AC50,[17],2.95 µM (active)
